Among the data in ChEMBL document CHEMBL1146924, “Beta-diketo acids with purine nucleobase scaffolds: novel, selective inhibitors of the strand transfer step of HIV integrase” (Bioorg Med Chem Lett, 2006) are IC50 values, retold here.

The structures appear in SMILES notation.

For assay [1], the target named is T1, Human immunodeficiency virus type 1 integrase (Human immunodeficiency virus 1, UniProt Q7ZJM1). The assay is described as follows: Inhibition of HIV1 integrase 3'-processing step.
Assay [2] deals with T1, Human immunodeficiency virus type 1 integrase. Description: Inhibition of HIV1 integrase strand transfer step.

As usually defined, the IC50 is the point on the concentration scale where inhibition reaches its midpoint. Low readings indicate higher potency, high ones lower potency.

T1 sequence (Q7ZJM1 whole entry): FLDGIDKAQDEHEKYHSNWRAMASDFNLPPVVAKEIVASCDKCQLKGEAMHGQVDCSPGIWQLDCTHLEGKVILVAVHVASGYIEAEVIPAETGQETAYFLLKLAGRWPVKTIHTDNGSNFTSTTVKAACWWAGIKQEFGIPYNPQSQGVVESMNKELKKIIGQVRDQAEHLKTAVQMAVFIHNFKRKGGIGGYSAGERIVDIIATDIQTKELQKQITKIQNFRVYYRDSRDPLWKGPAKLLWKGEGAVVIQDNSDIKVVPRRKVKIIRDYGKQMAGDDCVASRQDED

`O=C(O)C(=O)/C=C(/O)c1nc2cncnc2n1Cc1ccccc1`: the values for the IC50 in assay [1] and in assay [2] were 100 µM and 10 µM, respectively.

For the compound `O=C(O)C(=O)/C=C(/O)c1nc2c(=O)n(Cc3ccccc3)cnc2n1Cc1ccccc1`, the IC50 in assay [1] came to 31.5 µM; in assay [2], 4.1 µM.

Regarding `O=C(O)C(=O)/C=C(\O)c1ncnc2c1ncn2Cc1ccccc1`, the IC50 in assay [1] is 1000 µM; in assay [2], 790 µM.

As for `O=C(O)C(=O)/C=C(\O)c1nc2c(ncn2Cc2ccccc2)c(=O)n1Cc1ccccc1`, the half-inhibitory concentration (IC50) was found to be 30 µM in assay [1] and 2.7 µM in assay [2].
